Drawing on PubChem BioAssay (NCI), this text covers GI50 and TGI for 24 compounds.

Holding throughout (assay): NCI-60 cell line screen, 48 h
The subject of assay [1] is MDA-N.
Assay [2] relates to DMS 273 small cell lung.
The test system of assay [3] is KM20L2 colon.
Assay [4] deals with SNB-78 CNS.
Assay [5] concerns LXFL 529 NSCLC.
Assay [6] deals with RXF-631 renal.
The test system of assay [7] is HOP-18 NSCLC.
Assay [8] relates to XF 498 CNS.
Assay [9] concerns DMS 114 small cell lung.

“And” between values parts separate entries of the source, which are not always exact repeats. Equal entries are not always repeated.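 Test compounds were applied to cells in 96-well plates for 48 hours at 5 doses. GI50: concentration for 50% inhibition of growth. At the TGI there is no net growth.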

As for `CC[C@@]1(OC(=O)CN)C(=O)OCc2c1cc1n(c2=O)Cc2c-1nc1cc3c(cc1c2CCl)OCO3`, in assay [1], the GI50 is 0.0885 µM and the TGI was 0.645 µM.

Take `Cn1c(=O)c2[nH]c(SCCN3CCOCC3)nc2n(C)c1=S`: the TGI in assay [1] was > 100 µM.

`Clc1cccc(N2CCN(CCCN3CCc4c([nH]c5ccccc45)C3c3cccnc3)CC2)c1` (centres undefined): the GI50 in assay [2] is 12.6 µM; in assay [4], 2.88 µM; in [5] it was 11.3 µM; in assay [6], 19.5 µM. Further, the TGI was 27.9 µM in assay [2]; 18.8 µM in assay [3]; 9.39 µM in [4]; 24.4 µM in assay [5]; > 100 µM in assay [6]; 36 µM in assay [7].

Consider `COC(=O)CCC12CCC(=O)C1[C@@H](C(=O)OC)C[C@H]2C(=O)OC` (some centres undefined), for which the TGI in assay [2], in assay [8], in [3], in assay [4], in [9] and in assay [5] was > 100 µM in each case. The TGI in assay [6] and in [7] was > 100 µM in each case.

As for `O=C(O)c1cc(=O)c2c([nH]c3ccccc32)s1`, the TGI in assay [8], in assay [3], in [4], in assay [9], in assay [5] and in assay [6] was > 100 µM in each case.

On to `CCCn1cnc2c(SCC(=O)O)nc(N)nc21`, for which the TGI in [1] is > 100 µM.

Take `Cc1c(C(=O)/C=C/C=C/c2ccccc2)[n+](=O)c2ccccc2n1[O-]`: the TGI in [2] was > 100 µM; in assay [8] it was 95.3 µM; in assay [3], > 100 µM; in [4], > 100 µM; in assay [9] it was > 100 µM; in assay [5], 51.2 µM. Also, the TGI in assay [7] is > 100 µM.

As to `C[Si](C)(c1ccc(C(=O)O)cc1)c1ccc(C(=O)O)cc1`, the TGI in [1] is > 100 µM.

As to `CCOC(=O)CCC1(C(=O)OCC)CCCC1=O` (centres undefined), the TGI in assay [2], in assay [8], in assay [3], in [4], in assay [9] and in [5] was > 100 µM each time. Also, the TGI in assay [6] and in assay [7] was > 100 µM in each case.

Turning to `CCc1ccccc1NC(=O)/C=C/c1ccccc1`, the TGI in assay [1] was > 100 µM.

With `CNc1ccc2ncccc2c1[N+](=O)[O-]`, the TGI in assay [2], in [8], in assay [3], in [4], in [9] and in assay [5] was > 100 µM throughout. Moreover, the TGI in assay [6] and in assay [7] was > 100 µM throughout.

`Cc1cc(NC(=O)C2C3C=CC(O3)C2C(=O)O)no1` (centres undefined): the TGI in assay [2] is 34.2 µM; in [8] it was > 100 µM; in [3], 26.6 µM; in assay [4], > 100 µM; in [9], 29.9 µM; in assay [5], 46.6 µM. Further, the TGI in [6] and in assay [7] was > 100 µM each time.

Consider `C#CCNC(=O)ON1C(=O)CCC1=O`, for which the TGI in assay [2], in [3], in assay [4], in assay [5], in assay [6] and in assay [7] was > 100 µM in each case.

Consider `CCc1cccc(C)c1NC(=O)CCc1nnc2s/c(=C\c3cccc4ccccc34)c(=O)n12`, for which the TGI in assay [2], in assay [8], in [3], in assay [4], in assay [9] and in assay [5] was > 100 µM throughout. Besides, the TGI in assay [6] was > 100 µM.

Take `CCOc1ccc(/C(C=O)=C(\Cl)c2ccc(OC)cc2)cc1`: the TGI in [2], in assay [8], in assay [3], in assay [4], in assay [9] and in [5] was > 100 µM in each case. Besides, in assay [7], the TGI is > 100 µM.

As for `Cc1nc2ccc(Br)cc2c(=O)n1-c1ccc(NC2OCC(O)C(O)C2O)cc1` (centres undefined), in [1], the GI50 is 43.9 µM and > 100 µM; the TGI is > 100 µM.

Turning to `CC1(c2cc3c(cc2Br)OCO3)SCCCS1`, the TGI in assay [2] is > 100 µM; in assay [8], 82.3 µM; in [3], > 100 µM; in assay [4], > 100 µM; in [9], > 100 µM; in [5], > 100 µM. Also, the TGI in assay [6] is > 100 µM.

Consider `Cc1cccc2c1c1ccc3c(c1n2C)C(=O)C=CC3=O`, for which the TGI turned out to be 8.3 µM in assay [2]; 36.9 µM in [3]; 53.5 µM in assay [4]; 21.1 µM in [9]; 4.22 µM in assay [5]; 49.6 µM in [6]. The same compound displayed a TGI in assay [7] of 23.9 µM.

On to `O=[N+]([O-])c1cccc(-c2nc(-c3ccccc3)c(-c3ccccc3)[nH]2)c1`, for which the TGI in [1] was > 100 µM.

For the compound `N#C/C(=C\c1cccc(O)c1O)C(N)=O`, the TGI in assay [2] was > 100 µM; in assay [8] it was 95.6 µM; in assay [3], > 100 µM; in [4] it was > 100 µM; in assay [9], > 100 µM; in assay [5] it was > 100 µM. In assay [6], the TGI was > 100 µM.

In the case of `Cc1ccc(S(=O)(=O)N=NC=C2c3ccccc3N(O)c3ccccc32)cc1`, the TGI in [2] turned out to be 15.1 µM; in assay [3], 12.4 µM; in [4], 32.8 µM; in [9] it was 10.8 µM; in assay [5], 2.41 µM; in assay [6] it was 10.2 µM. This compound also registered a TGI in assay [7] of 20.8 µM.

Take `O=c1nc(-c2ccccc2)cc(CC(O)c2ccc(Cl)c(Cl)c2)[nH]1` (centres undefined): the TGI in [2], in assay [3], in assay [9], in [5] and in [7] was > 100 µM each time.

As to `O=c1cc(-c2ccc(O)cc2)oc2cc(O[C@@H]3O[C@H](CO)[C@@H](O)[C@H](O)[C@H]3O)cc(O)c12`, in [1], the TGI was > 100 µM.

For the compound `Cc1cc(Cl)ccc1OCC(=O)Nc1nc(N)nc(N)n1`, the TGI in assay [1] is > 100 µM.
